Assay results taken from patent US6998383B2, “Inhibitors of receptor activator of NF-κB and uses thereof” (Research Development Corporation, priority 2001, dated 2006).

Assays:
[1] = test system: NF-κB; experiment: RANKL-induced NF-κB activation in RAW264.7 cells (gel mobility shift assay); format: cell-based, mouse; details: peptide pre-treatment 5 h, RANKL 10 nM 15 min (FIG. 4A)
Description: RAW264.7 cells were plated in 6-well plates and treated with the indicated peptides for 5 h, then treated with RANKL (10 nM) for 15 mm. Nuclear and cytoplasmic extracts were prepared and a gel mobility shift assays was performed with 8 μg of nuclear extracts as described below.
Nuclear extracts were prepared from transfected cells essentially as described (34). Equivalent amounts of nuclear protein were used in an EMSA reaction with ^32P-labeled NF-κB oligonucleotide from HIV-LTR as described (34). NF-κB activation was quantitated using a PhosphoImager and Imagequant Software.
A mutant form of the receptor activator of NF-κB which contains only the TRAF6 binding domain is sufficient to activate NF-κB (8), and a dominant negative TRAF6 inhibits RANK-mediated NF-κB activation in 293 cells (9). To investigate the effect of the TRAF6 binding peptides on RANKL-induced NF-κB activation, NF-κB activation was examined in RAW264.7 cells that activated NF-κB when stimulated with RANKL (37). RANKL-stimulated RAW264.7 cells activated NF-κB as indicated by a gel mobility shift assay (FIG. 4A).

[2] = test system: RAW cells co-cultured with breast cancer cell lines; experiment: Osteoclast differentiation of RAW cells induced by co-cultured breast cancer cells (T47D, MDA-MB-468); format: cell-based, mouse; details: co-culture, 100 μM peptide, 5 days, TRAP staining (FIG. 6A)
Description: FIG. 6A: Breast cancer cells (500/well) were plated in 24-well plates in the absence or presence of RAW cells (10000/well) and in the absence or presence of L-T6DP-1 or T6DP-1 (100 μM). After 5 days. the cells were fixed, stained for TRAP, and photographed with a 10× objective lens.
The number of MG-63 cells was critical for inducing RAW cells to differentiate into osteoclasts. These observations lead to a direct inverse relationship between the number of RAW cells to MG-63 cells which is required for the formation of osteoclasts. […] When grown on synthetic bone slides, the osteoclasts derived from the co-culture assays were able to cause bone resorption (FIG. 6B).
When L-T6DP-1 was added to these co-culture assays, the ability of the breast cancer cells to induce osteoclast differentiation of RAW cells was abolished, whereas T6DP-1 had no effect (FIG. 6A).

[3] = target: T1, TRAF5 binding to the cytoplasmic domain of RANK (Mus musculus, UniProt P70191); experiment: Competitive GST-pull down assay, TRAF5 binding to RANK cytoplasmic domain; details: 100 μM peptide, FLAG-TRAF5 293 cell extract (FIG. 4C)
T1 construct: expressed in transfected cells; host or cells: human 293 cells (TRAF lysate); The GST-RANK fusion was purified as previously described
T1 sequence (P70191 whole entry, the tested form may be a part): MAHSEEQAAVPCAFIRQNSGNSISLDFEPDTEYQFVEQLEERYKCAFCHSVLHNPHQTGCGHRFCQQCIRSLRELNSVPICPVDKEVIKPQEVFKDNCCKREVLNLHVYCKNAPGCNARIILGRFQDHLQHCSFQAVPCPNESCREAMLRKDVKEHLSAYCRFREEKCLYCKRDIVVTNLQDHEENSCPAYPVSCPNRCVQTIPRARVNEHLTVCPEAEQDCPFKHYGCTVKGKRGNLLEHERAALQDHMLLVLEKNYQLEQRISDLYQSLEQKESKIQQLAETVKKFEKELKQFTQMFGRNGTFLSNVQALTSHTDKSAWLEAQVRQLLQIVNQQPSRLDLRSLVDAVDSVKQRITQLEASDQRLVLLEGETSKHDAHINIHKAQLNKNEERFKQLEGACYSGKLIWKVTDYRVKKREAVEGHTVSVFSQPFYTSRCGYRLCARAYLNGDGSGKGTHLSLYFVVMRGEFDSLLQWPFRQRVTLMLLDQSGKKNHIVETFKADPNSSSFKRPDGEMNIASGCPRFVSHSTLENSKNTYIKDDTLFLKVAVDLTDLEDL
Description: Cellular extracts from human 293 cells transfected with either FLAG-TRAF2, -TRAF5, or -TRAF6 were mixed with GST or GST-RANKed in the absence or presence of 100 μM of the indicated peptides. A GST-pull down assay was performed as described below. The bound TRAFs were visualized by immunoblotting with anti-FLAG antibodies.
Equivalent amounts of GST or GST-RANK cytoplasmic domain (GST-RANKed) fusion protein attached to 20 μl of glutathione agarose beads were mixed with lysates (50 μg) from 293 cells programmed to express the epitope-tagged TRAF protein and the indicated peptides in binding buffer (20 mM TRIS, pH 8, 150 mM NaCl, 1 mM DTT, 2 mM EDTA, and 0.1% NP-40) and allowed to rotate for 1 h at 4° C. The beads were collected by centrifugation, washed three times in binding buffer, and then washed once in low-salt buffer (20 mM TRIS, pH 8, 50 mM NaCl, and 1 mM DTT). Bound proteins were eluted with addition of SDS-sample buffer and boiled. The eluted proteins were subjected to 7.5% SDS-PAGE and western blot analysis was performed with anti-FLAG antibodies.
The cytoplasmic domain of RANK interacts with many TRAF molecules, including TRAF1, 2, 3, 5, and 6 (7-9, 11, 12). While TRAF1, 2, 3, and 5 interact with the c-terminal tail of receptor activator of NF-κB, TRAF6 interacts with a membrane proximal region of the cytoplasmic domain of the receptor activator of NF-κB. […]

[4] = test system: JNK; experiment: RANKL-mediated JNK activation in RAW264.7 cells (immune complex kinase assay, GST-Jun (1-79) substrate); format: cell-based, mouse; details: peptide 6 h, RANKL 10 nM 15 min (FIG. 5A)
Description: RAW264.7 cells were plated in 6-well plates and treated with the indicated peptides for 6 h, then treated with RANKL (10 nM) for 15 mm. Whole cell extracts were prepared and 30 μg of cell lysate was immunoprecipitated with anti-JNK1. In vitro kinase assays were performed using GST-Jun (1-79) as the substrate as described below.
Lysates were prepared from RAW cells stimulated with RANKL as indicated in the legends to the figures. Approximately 30 μg was then used for immunoprecipitation with indicated antibodies and protein A/G Sepharose beads for 1 h. Beads were collected by centrifugation, washed three times in lysis buffer, and then washed two times in low-salt buffer. JNK activity was analyzed using exogenous GST-Jun (1-79) as a substrate as previously described (8). Kinase activity was quantitated using a PhosphoImager and Imagequant Software (Molecular Dynamics, Sunnyvale, Calif.).
Stimulation of the receptor activator of NF-κB activates members of the MAPK family including JNK, ERK and p38 kinase. The ability of the TRAF6 binding peptides to inhibit the receptor activator of NF-κB ligand-induced JNK, ERK, and p38 kinase activation was examined in RAW264.7 cells. […] Similar to the results with JNK, only L-T6DP-1 was able to block ERK (FIG. 5B) and p38 kinase (FIG. 5C) activation induced by the receptor activator of NF-κB ligand in RAW264.7 cells.

L-T6DP-1: Kaposi fibroblast growth factor signal sequence hydrophobic domain attached to murine RANK peptide containing the known TRAF6 binding domain (AAVALLPAVLLALLAPRKIPTEDEYTDRPSQPST; PEPTIDE Peptide L-T6Bp-1)
RANKL-induced NF-κB activation [1]: suppressed in a dose-dependent manner
ability of breast cancer cells to induce osteoclast differentiation of RAW cells [2]: abolished
TRAF5 binding to the cytoplasmic domain of RANK [3]: neither L-T6DP-1 nor L-T6DP-2 inhibited
RANKL-mediated JNK activation [4]: capable of inhibiting
